# According to paper PMC6836573, “Mitochondria-targeting fluorescent molecules for high efficiency cancer growth inhibition and imaging” (Chemical Science, 2019):
# Entries after “also recorded” stand apart in the source; their conditions may differ.
# Columns and labels:
# [1] = Cytotoxicity assay (direct cell counting), NIH-3T3; type: cell-based; details: mouse; NIH-3T3 normal cells; 3 days incubation, viable cells counted
# Experimental: (§1) Cell culture, imaging, and cytotoxicity assay
# (§2) RPMI-1640 medium. NIH/3T3 was cultured in DMEM medium. A549 was cultured in F-12K medium. T24 were cultured in McCoy's 5A medium. All culture mediums were supplemented with 10% fetal bovine serum. The cells were incubated at 37 °C in an atmosphere containing 5% CO 2. […]
# (§3) Cytotoxicity assay. All test cell lines were incubated in 96-well plates overnight at a density of 3000 cells/well. The culture medium was replaced with 200 μL of culture medium, into which the testing compound was dispersed at various concentrations (1.95 - 500 μM). After incubating for 3 days, the viable cell numbers were checked and directly counted under microscopy (10X). A minimum of 1mm×1mm area was counted from each of at least three widely separated regions of cell culture. The cell proliferation rate was calculated by the following formula: cell proliferation rate (%) = (average cell number of sample wells / average cell number of control wells) ×100%.
# (§4) The intact culture medium was evaluated as a control. […]
# [2] = Relative fluorescence quantum yield; type: physicochemical; details: EtOH, relative to rhodamine 6G, excited at 425 nm
# Experimental: Quantum yield. The fluorescence quantum yields of F16s were determined according to the […]
# Where Φ is the quantum yield, F is the integrated area under the corrected emission spectrum, and A is the absorbance at the excitation wavelength; the subscripts x and s refer to F16s and the standard, respectively. Rhodamine 6G (ΦF = 95%) in ethanol was used as the standard. All F16s and Rhodamine 6G were dissolved in ethanol in 5 different concentrations with the absorbance lower than 0.1 at 425nm. The corresponding 5 different fluorescences of F16s and Rhodamine 6G were excited at 425 nm and the emission spectra from 450 nm to 650 nm were obtained for the following integrated area measurement. All data were analyzed using Origin Pro 9.0 software (OriginLab, Northampton, Massachusetts, USA) to get the F16s final quantum yield. […]
# [3] = Photostability under continuous excitation; type: physicochemical; details: water, 10 μM, continuously excited for 50 min
# Experimental: bandpass filter (MF559-34, Thorlabs, Newton, New Jersey, USA) was used to excite Mitotracker
# Red. All the dyes were dissolved in water at a 10 µM concentration in 700 µL micro quartz cuvettes (10 mm, Sigma-Aldrich, St. Louis, MO, USA). They were continuously excited for 50 mins.
# During this period, the fluorescence intensity was measured every 5 mins at 525 nm (F16s, Rhodamine 6G, Mitotracker Green) or 600 nm (Mitotracker Red). Relative fluorescence intensity change was monitored over time. […]
# bladder cancer T24 cell = assay: Cytotoxicity assay (direct cell counting), T24; type: cell-based; details: for IC50: T24 cells, 3 days incubation, viable cells counted
# Experimental: as §1, §2, §3, §4
# NSCLC H838 cell = assay: Cytotoxicity assay (direct cell counting), H838; type: cell-based; details: H838 cells, 3 days incubation, viable cells counted
# Experimental: as §1, §2, §3, §4
# All animal experiments were performed in compliance with the Guidelines for the Care and Use of Research Animals as established by the Stanford University Animal Studies Committee. Female athymic nude mice (nu/nu) from 4−6 weeks old were obtained from Charles River Laboratories (Boston, MA, USA) and kept under sterile conditions. 5 × 106 human lung adenocarcinoma
# [4] = Absorption and emission spectra in water; type: physicochemical; details: 31 μM
# [5] = design: method as in PMID 19072739, PMID 10656430, PMID 12154051; details: study halted at Phase II; cited from earlier work
# [6] = design: method as in earlier work; details: in ethanol, used as the standard; ref 2 of the supplement; cited from earlier work
Quantum Yield [2] [%],Compound,IC50 at 3 days [1] [µM],"IC50 (bladder cancer T24 cell; Homo sapiens, T-24, 72 h) [µM]","IC50 (NSCLC H838 cell; Homo sapiens, NCI-H838, 72 h) [µM]",further results
13.6,Cn1cc(/C=C/c2cc[n+](C)cc2)c2cc(F)ccc21 [1-MeFF16],104,21.7,19.1,Quantum Yield ([2]; listed as 1): around 12%; photostability ([3]; listed as 1): bleached quite easily; also recorded: dramatically decreased photostability
8.6,C[n+]1ccc(/C=C/c2c(Cl)[nH]c3ccccc23)cc1 [2-ClF16],13.8,54.7,25.7,Quantum Yield ([2]; listed as 8): under 10%; photostability ([3]; listed as 8): bleached quite easily; also recorded: poor photostability
18.1,Cc1ccc2[nH]c(C)c(/C=C/c3cc[n+](C)cc3)c2c1 [2-Me-5-MeF16],161,68.8,17.3,Quantum Yield ([2]; listed as 9): around 20%; photostability ([3]; listed as 9): bleached quite easily; also recorded: poor photostability; absorption peak [4]: about 450 nm
5.8,C[n+]1ccc(/C=C/c2c(-c3ccccc3)[nH]c3ccccc23)cc1 [2-PhF16],0.326,4.02,3.74,Quantum Yield ([2]; listed as 5): under 10%; absorption peak [4]: about 450 nm
49.1,C[n+]1ccc(/C=C/c2c[nH]c3ccc(Br)cc23)cc1 [5-BrF16],11.6,1.84,1.2,
9.7,C[n+]1ccc(/C=C/c2c[nH]c3ccc(C#N)cc23)cc1 [5-CNF16],,316,20,Quantum Yield ([2]; listed as 6): under 10%
4.5,C[n+]1ccc(/C=C/c2c[nH]c3c(F)cc(I)cc23)cc1 [5-I-7-FF16],14.2,3.83,1.29,Quantum Yield ([2]; listed as 10): under 10%
,"C[n+]1ccc(/C=C/c2c[nH]c3ccccc23)cc1 [F16, reference compound]",,,,IC50 (bladder cancer T24 cell): 18.8 µM; IC50 (NSCLC H838 cell): 46.6 µM
18.5,C[n+]1ccc(/C=C/c2c[nH]c3ccc(F)cc23)cc1 [FF16],75.1,6.26,3.63,Quantum Yield ([2]; listed as 7): around 20%; selectivity indices (bladder cancer T24 cell; 3T3 versus T24 and H838): > 10
,CCn1c(=O)/c(=C2\Sc3ccccc3N2C)s/c1=C\c1cccc[n+]1CC.[Cl-] [MKT-077],,,,anti-tumor effect in clinical trial [5]: limited anti-tumor effect; nephrotoxicity in clinical trial [5]: mild nephrotoxicity
1.24,C[n+]1ccc(/C=C/c2c[nH]c3ccc([N+](=O)[O-])cc23)cc1 [NO2F16],86,73.8,4.7,Quantum Yield ([2]; listed as 11): under 10%
12.2,C[n+]1ccc(/C=C/c2c[nH]c3c2ccc2ccccc23)cc1 [PhF16],0.28,1.02,1.5,Quantum Yield ([2]; listed as 2): around 12%
,CC/N=c1\cc2oc3cc(NCC)c(C)cc3c(-c3ccccc3C(=O)OCC)c-2cc1C [rhodamine 6G],,,,Quantum Yield of the standard [6]: 95%
